Results taken from patent US20170071918A1 (THE UNIVERSITY OF HONG KONG, priority 2015, published 2017).
“And” between values parts separate entries of the source, which are not always exact repeats. Equal values may be shown once.

Legend:
[1] = tested on: NF-κB binding to the CD47 promoter; assay: ChIP-qPCR assay of NF-κB occupancy on the CD47 promoter; format: cell-based, human
Procedure: The cells were processed for ChIP assays according to Upstate CHIP protocol. Briefly, cells were cross-linked for 10 min with 1% formaldehyde and lysed. Lysate pellets were resuspended and sonicated with a Microson sonifier XL-2000 (Misonix) for 10 cycles (ON/OFF 30 seconds; amplitude 10 microns). Protein-DNA complexes were immunoprecipitated using p65 (C-20) antibody (Santa Cruz Technology, Santa Cruz, Calif.) or Normal rabbit IgG (Thermo Fisher Scientific, Rockford, Ill.) bound to protein A agarose, eluted, and digested with proteinase K. For qPCR analysis of the ChIP DNA samples before amplicon generation, QIAquick-purified immunoprecipitates were dissolved in 30 μl of water. Standard PCR reactions using […] of the immunoprecipitated DNA were performed with a SYBR Green PCR kit (Applied Biosystems) using primers which generates a PCR amplicon flanking −564 and -1740 base pairs upstream of the NM 001777 (CD47) transcription start site based on bioinformatics analysis on the Human Genome Build from the UCSC Genome Browser February 2009 (GRCh37/hg19) Assembly. Calculation of NF-κB occupancy on the CD47 promoter was performed according to the ChIP-qPCR primer assay data analysis template from Superarray Bioscience (Frederick, Md.).

[2] = tested on: NF-κB (nuclear p65 (Ser536), cytosolic p-IκBα (Ser32/36)); assay: Western blotting of NF-κB activation; format: cell-based, human
Procedure: upon lysis with Buffer A (0.5 mM DTT, 10 mM HEPES, 10 mM KCl 1.5 mM MgCl2, pH7.9) for 15 minutes on ice and 0.5% NP-40 was added before extraction by centrifugation. The remaining pellet was treated with RIPA buffer (50 mM Tris-HCl pH7.4, 1% NP-40, 0.05% SDS 150 mM NaCl, 1 mM EDTA) for 30 minutes on ice and the nuclear fraction was obtained by centrifugation.
Western blots were developed using an ECL Plus kit (Amersham Biosciences, Piscataway, N.J.). The primary antibodies included mouse anti-human p65 (Ser536), mouse anti-human p-Akt (Ser473), anti-human p-Erk (Thr202/Tyr204), rabbit anti-human Bcl-2, rabbit anti-human cleaved caspase-9, rabbit anti-human cleaved PARP, mouse anti-human p-IκBα (Ser32/36) (Cell Signal Technology) and mouse anti-human α-tubulin, rabbit anti-human Bax, rabbit anti-human SP1 (PEP2) (Santa Cruz Technology, Santa Cruz, Calif.). After washing, the membrane was incubated with horseradish peroxidase-conjugated anti-mouse or rabbit antibody (Amersham) and then visualized with enhanced chemiluminescence plus according to the manufacturer's protocol.

CD47 expression = assay: Flow cytometric analysis of cell-surface CD47; format: cell-based, human
Procedure: Phycoerythrin (PE)-conjugated CD47 (BD PharMingen, San Jose, Calif.), APC-conjugated CD133 (MACS Miltenyi Biotec), FITC-conjugated CD24 (MACS Miltenyi Biotec), FITC-conjugated EPCAM (Becton Dickinson), were incubated in phosphate-buffered saline (PBS) containing 2% fetal bovine serum (FBS) for 30 minutes at 4° C. Isotype-matched mouse immunoglobulins served as controls. The samples were analyzed using a Canto II flow cytometer and FACSdiva software (BD Biosciences, San Jose, Calif.).

NF-κB promoter activity = assay: Luciferase reporter assay, NF-κB promoter; format: cell-based, human
Procedure: (§1) NF-κB promoter plasmid pNF-κB-Luc or CD47 luciferase promoter plasmid were transfected together with pRL-cytomegalovirus as normalization using Lipofectamine 2000 (Thermo Fisher Scientific). Cell were incubated for 48 hours prior to detection by Dual-Luciferase Reporter Assay System Kit (Promega) according to manufacterer's protocol. Gaussia Luciferase Assay Kit (GeneCopoeia) was used for CD47 detection. Samples were detected with Infinite F200 Tecan Multiplate reader (Tecan Austria GmbH).

CD47 promoter activity = assay: Luciferase reporter assay, CD47 promoter; format: cell-based, human
Procedure: as §1

[3] = tested on: Bel-7402 cells (mock-treated and sorafenib-resistant); assay: Annexin V staining apoptosis assay, Bel-7402; format: cell-based, human
Procedure: (§2) Cells were stained in binding buffer, proipidium iodide (PI) and FITC-conjugated Annexin V as provided by the Annexin-V-FLUO+S Staining Kit (Roche Diagnostics) according to manufacturer's instructions. Analysis was determined using a Canto II flow cytometer and FACSdiva software (BD Biosciences).

[4] = tested on: Huh-7 cells (mock-treated and sorafenib-resistant); assay: Annexin V staining apoptosis assay, Huh-7; format: cell-based, human
Procedure: as §2

MHCC97L cells = assay: Annexin V staining apoptosis assay, MHCC97L; format: cell-based, human; conditions: sorafenib 10 μM; MHCC97L shCD47 vs control
Procedure: as §2

[5] = tested on: mock-treated and sorafenib-resistant HCC cells (Bel-7402 and Huh-7); assay: XTT cell proliferation assay; format: cell-based, human; conditions: sorafenib 5 to 25 μM, 48 h; mock-treated vs sorafenib-resistant cells
Procedure: After 48 h, (2,3-Bis-(2-Methoxy-4-Nitro-5-Sulfophenyl)-2H-Tetrazolium-5-Carboxanilide) (XTT) dye, at a concentration of 5 mg/mL (Sigma-Aldrich, St Louis, Mo.), was added and the plates were incubated for 12 h in a moist chamber at 37° C. Optical density was determined by eluting the dye with dimethyl sulfoxide (Sigma-Aldrich) and the absorbance was measured at 570 nm. At least three independent experiments were performed.

PDTX#5 tumor tissues = assay: TUNEL assay of apoptotic nuclei in PDTX#5 tumors; format: in vivo, mice; conditions: tumors harvested day 31
Procedure: The TUNEL assay was performed to detect apoptotic cells using in situ cell death detection kit (Roche Diagnostics, Indianapolis, Ind.). Briefly, paraffin-embedded tissues were fixed with 15 μg/mL proteinase K in 10 mM Tris/HCl at pH 7.4. The slides were then incubated with the TUNEL reaction mixture for 1 h at 37° C. After washing, the slides were incubated with a horseradish peroxidase-conjugated anti-fluorescein antibody for 30 min at 37° C. Stained slides were imaged on an Aperio Scanscope® CS imager (Vista, Calif.), generating 0.43 μm/pixel whole slide images. These images were compiled, and number of apoptotic nuclei was quantitated using the Aperio Spectrum® software with a pixel count algorithm.

[6] = tested on: patient-derived HCC tumor xenografts (PDTX#1 and PDTX#5); assay: Sorafenib treatment of PDTX#1 and PDTX#5 xenografts (in vivo selection); conditions: sorafenib 100 mg/kg oral for 31 days; NOD-SCID mice
From the text: Using this in vivo treatment, we enriched the proportion of sorafenib-resistant HCC cells in residual tumors.

CD47 (human) = CD47 (human) (UniProt Q08722); assay: cell-based or functional assay
[7] = TNF-α 20 ng/mL, PLC/PRF/5 and Bel-7402 cells
[8] = TNF-α for 1 hour, Bel-7402 and PLC/PRF/5 cells
[9] = IMD-0354, Huh-7 and MHCC97L cells

TNF-α
Fold enrichment of NF-κB binding relative to background ([1]; Bel-7402 cells, site 1, 20 ng/mL TNF-α, 1 hour before fixation (untreated 1.5-fold)): 2.5 fold | Fold enrichment of NF-κB binding relative to background ([1]; Bel-7402 cells, site 2, 20 ng/mL TNF-α, 1 hour before fixation (untreated 1.6-fold)): 2.5 fold | NF-κB activation (nuclear p65 (Ser536) and cytosolic p-IκBα (Ser32/36)) [2, 7]: successfully induced NF-κB activation | CD47 expression on the surface of HCC cells (CD47 expression; [7]): increase in CD47 expression | NF-κB promoter activity (NF-κB promoter activity; [8]): increase in NF-κB promoter activity | CD47 promoter activity (CD47 promoter activity; [8]): corresponding increase in CD47 promoter activity

O=C(Nc1cc(C(F)(F)F)cc(C(F)(F)F)c1)c1cc(Cl)ccc1O [IMD-0354]
Toxic effects on cells ([3]; 0.5 μM IMD-0354, Bel-7402): no toxic effects | Sensitization to sorafenib ([3]; 0.5 μM IMD-0354 cotreatment with sorafenib, Bel-7402): sensitized | Annexin V-positive (apoptotic) cells ([3]; sorafenib plus IMD-0354 at 0.5 μM, mock-treated Bel-7402): 30.8% | Annexin V-positive (apoptotic) cells ([3]; sorafenib plus IMD-0354 at 0.5 μM, sorafenib-resistant Bel-7402): 32.9% | Toxic effects on cells ([4]; 0.05 μM IMD-0354, Huh-7): no toxic effects | Sensitization to sorafenib ([4]; 0.05 μM IMD-0354 cotreatment with sorafenib, Huh-7): sensitized | Annexin V-positive (apoptotic) cells ([4]; sorafenib plus IMD-0354, mock-treated Huh-7): 50.2% | Annexin V-positive (apoptotic) cells ([4]; sorafenib plus IMD-0354, sorafenib-resistant Huh-7): 33.9% | Fold enrichment of NF-κB binding relative to background ([1]; Huh-7 cells, site 1, 1 μM IMD-0354 for 24 hours (untreated 1.4-fold)): 1.1 fold | Fold enrichment of NF-κB binding relative to background ([1]; Huh-7 cells, site 2, 1 μM IMD-0354 for 24 hours (untreated 1.8-fold)): 0.9 fold | Fold enrichment of NF-κB binding relative to background ([1]; MHCC97L cells, site 1, 3 μM IMD-0354 for 24 hours (untreated 4.3-fold)): 1.4 fold | Fold enrichment of NF-κB binding relative to background ([1]; MHCC97L cells, site 2, 3 μM IMD-0354 for 24 hours (untreated 2.8-fold)): 1.5 fold | NF-κB activation (phosphorylation of p65 and IκBα) ([2]; IMD-0354 at 1 μM in Huh-7 and 3 μM in MHCC97L cells): effectively suppressed NF-κB activation | Cell-surface expression of CD47 (CD47 expression; IMD-0354, MHCC97L and Huh-7 cells): reduction in cell-surface expression of CD47 | NF-κB promoter activity (NF-κB promoter activity; [9]): significantly down-regulated | CD47 promoter activity (CD47 promoter activity; [9]): significantly down-regulated

CNC(=O)c1cc(Oc2ccc(NC(=O)Nc3ccc(Cl)c(C(F)(F)F)c3)cc2)ccn1 [sorafenib]
Annexin V-positive (apoptotic) cells ([3]; sorafenib 15 μM, mock-treated Bel-7402, after CD47 knockdown): 38% | Annexin V-positive (apoptotic) cells ([3]; sorafenib 15 μM, mock-treated Bel-7402, before CD47 knockdown (nontarget control)): 25.2% | Annexin V-positive (apoptotic) cells ([3]; sorafenib 15 μM, sorafenib-resistant Bel-7402, after CD47 knockdown): 37.6% | Annexin V-positive (apoptotic) cells ([3]; sorafenib 15 μM, sorafenib-resistant Bel-7402, before CD47 knockdown (nontarget control)): 19.1% | Annexin V-positive (apoptotic) cells ([3]; sorafenib alone, mock-treated Bel-7402): 29.0% | Annexin V-positive (apoptotic) cells ([3]; sorafenib alone, sorafenib-resistant Bel-7402): 14.9% and 13.2% | Sensitivity of cells to sorafenib after CD47 knockdown ([4]; sorafenib 10 μM, Huh-7 shCD47 vs control): increased the sensitivity of cells to sorafenib | Annexin V-positive (apoptotic) cells ([4]; sorafenib alone, mock-treated Huh-7): 37.7% and 43.0% | Annexin V-positive (apoptotic) cells ([4]; sorafenib alone, sorafenib-resistant Huh-7): 28.4% and 35.1% | Annexin V-positive (apoptotic) cells ([4]; sorafenib, mock-treated Huh-7, after CD47 knockdown): 57.9% | Annexin V-positive (apoptotic) cells ([4]; sorafenib, mock-treated Huh-7, before CD47 knockdown (nontarget control)): 48.8% | Annexin V-positive (apoptotic) cells ([4]; sorafenib, sorafenib-resistant Huh-7, after CD47 knockdown): 56.9% | Annexin V-positive (apoptotic) cells ([4]; sorafenib, sorafenib-resistant Huh-7, before CD47 knockdown (nontarget control)): 38.8% | Sensitivity of cells to sorafenib after CD47 knockdown (MHCC97L cells): increased the sensitivity of cells to sorafenib | Growth-suppressive effect on cell proliferation [5]: significantly greater in mock-treated cells | Percentage of apoptotic nuclei in tumor tissues (TUNEL) (PDTX#5 tumor tissues): higher | Effect on xenograft tumors [6]: tumor inhibition

B1: Monoclonal antibody against CD47 (B6H12) (antibody, from another filing, V domains shown)
VH: EVQLVESGGDLVKPGGSLKLSCAASGFTFSGYGMSWVRQTPDKRLEWVATITSGGTYTYYPDSVKGRFTISRDNAKNTLYLQIDSLKSEDTAIYFCARSLAGNAMDYWGQGTSVTVSS
VL: DIVMTQSPATLSVTPGDRVSLSCRASQTISDYLHWYQQKSHESPRLLIKFASQSISGIPSRFSGSGSGSDFTLSINSVEPEDVGVYYCQNGHGFPRTFGGGTKLEIK
sorafenib sensitivity, mock-treated Bel-7402 cells, without to with anti-CD47 antibody at 2 µg/mL (CD47 (human)): 29 to 37.6% | sorafenib sensitivity, mock-treated Huh-7 cells, without to with anti-CD47 antibody at 2 µg/mL (CD47 (human)): 43 to 48.5% | sorafenib sensitivity, sorafenib-resistant Bel-7402 cells, without to with anti-CD47 antibody at 2 µg/mL (CD47 (human)): 13.2 to 38.4% | sorafenib sensitivity, sorafenib-resistant Huh-7 cells, without to with anti-CD47 antibody at 2 µg/mL (CD47 (human)): 35.1 to 39.3%
